Columns and labels:
koi = test: 48 h semi-lethal concentration of heavy metal solutions for koi; conditions: recorded as 1 toxic unit (1 TU)
zebrafish [1] = test: Zebrafish electro-cardio indexes under deltamethrin exposure, with Pearson correlation to environmental stress E; conditions: as concentration increased (0.52, 2, 2.6 μg/L), 0-48 h
Protocol: Fish electro-cardio signals respectively before and after the fish is exposed to a solution containing a specific organic compound are gathered by the real-time and miniaturized fish electro-cardio acquisition system, and various electro-cardio indexes are respectively extracted.
The correlation between environmental stress and respective extracted electro-cardio indexes is analyzed according to Pearson Correlation Analysis to select an electro-cardio index suitable for the assessment of water quality with respect to this specific organic compound.
A linear regression model between the environmental stress and respective electro-cardio indexes is analyzed and assessed according to Akaike Information Criterion and the sum of square error to finally obtain an electro-cardio index suitable for the assessment of water quality with respect to the specific organic compound.
In the present method, the real-time electro-cardio signals were acquired from multiple fishes respectively exposed to different concentrations of the specific organic compound. Firstly, the zebrafish was exposed to an organic solvent deltamethrin solution. […]
The acquired electro-cardiographs were subjected to filtering and interference removal to become clearer; the analyzed data was processed, and then was analyzed by Matlab software and SPSS software to estimate the electro-cardio changes based on data differences. […]

zebrafish [2] = test: 48 h medial lethal concentration of deltamethrin for zebrafish; assay type: in vivo; conditions: recorded as 1 toxic unit (1 TU)
From the text: Three zebrafishes were used in each exposed group.

| Structure (SMILES) | 48 h semi-lethal concentration (koi) [mg/L] | PR interval, QRS interval, ST interval and QT interval (zebrafish [1]) | amplitudes of P-wave, Q-wave, R-wave, S-wave and T-wave (zebrafish [1]) | 48 h medial lethal concentration (zebrafish [2]) [µg/L] |
| --- | --- | --- | --- | --- |
| [Cl][Cd][Cl] [cadmium chloride] | 23.6 |  |  |  |
| CC1(C)[C@H](C(=O)O[C@H](C#N)c2cccc(Oc3ccccc3)c2)[C@@H]1C=C(Br)Br [deltamethrin] |  | increased | decreased | 5.2 |
| [Mn+2] [manganese] | 2.75 |  |  |  |
| [Cl][Hg][Cl] [mercury chloride] | 0.13 |  |  |  |

— US10571448B2, “Method and system for comprehensive evaluation of organic compound and heavy metal pollution in water based on fish electrocardio” (priority 2018, dated 2020)
